How the values were obtained:
Bcl2/Nur77 complex = biological target: T1, Bcl2/Nur77 complex (Homo sapiens, UniProt P10415); assay: Co-immunoprecipitation of Nur77 with Bcl-2 in the presence of PTX; format: binding; settings: whole cell lysates from A2780, PTX 10 µM, 2 h at 4 °C
T1 construct: endogenous in cells; host or cells: A2780 (human ovarian cancer) whole cell lysate
Description: (§1) Cells, harvested in cold phosphate-buffered saline, were extracted for 30 min at 4 °C in lysis buffer (50 mM Tris-HCl, pH 7.4, 150 mM NaCl, 1% NP-40) containing 1mM DTT, protease inhibitor cocktail (Roche) and phosphatase inhibitors (50 mM NaF, 0.2 mM Na3VO4). Mitochondria isolation was performed as previously described (Ferlini et al., 2003). After centrifugation, supernatants (300 µg from total lysates and 100 µg from mitochondrial extracts) were immunoprecipitated at 4 °C overnight in lysis buffer by adding protein A/G plus-agarose beads (Santa Cruz Biotechnology) after 2 h of incubation with 2 µg of the following antibodies: anti-Bcl-2 (N19, Santa Cruz Biotechnology), anti-Bcl-2 (clone 124, Dako), anti-Bcl-2 BH3 domain (Abgent), anti-Nur77 (Imgenex), anti-β-tubulin (H235, Santa Cruz Biotechnology), anti-class III β-tubulin polyclonal antibody (Covance) and isotype-matched non-immune IgG (Sigma) as control. […]
The significant similarity between the binding sites of the two PTX target proteins resulted from molecular modeling studies prompted the authors to investigate the possibility that PTX is a peptidomimetic compound. […] In order to assess this hypothesis, recombinant histidine-tagged Nur77 was purified and the interaction with in vitro produced Bcl-2 and Bcl-2Δ labeled with ^35S-methionine was analyzed. […]

[1] = system: mitochondria freshly isolated from TC1-Bcl-2Δ cells; assay: Flow cytometric assessment of Δψm in freshly isolated mitochondria (Rhodamine 123); format: cell-based, human; settings: PTX 10 µM, 60 min; mitochondria from TC1-Bcl-2Δ; without treatment 14%
Description: (§2) Cell culture procedures and cell lines have been elsewhere described (Ferlini et al., 2003). Mitochondria were freshly isolated and mitochondrial transmembrane potential Δψm was assessed as previously described (Ferlini et al., 1995), using Rhodamine 123 (Molecular Probes) and a Facscan flow cytometer (Becton Dickinson).
(§3) Here, they used the human ovary A2780 cancer cell line and its counterpart TC1 (Ferlini et al., 2003) with acquired PTX-resistance. […] Since the homology between the Bcl-2 and Bcl-xL is high, with the exception of the loop domain, TC1 cells were stably transfected with a construct in which the loop domain of Bcl-2 (aa 35-91) was deleted and replaced with a linker sequence of four alanine residues, as previously described by Chang et al. (Chang et al., 1997). These cells are thereafter referred to as TC1 Bcl-2Δ. Mitochondria were freshly isolated from these cells and were treated with PTX (10 µM). This concentration has a clinical relevance since it corresponds to the intracellular concentration achievable in patients. (Andre et al., 2000).
(§4) The status of mitochondrial transmembrane potential (Δψm) was then monitored using the cationic fluorochrome Rhodamine 123 and flow cytometry. Results of these experiments are depicted in Fig. 1B. […] In fact, as reported in Fig. 1B the percentage of mitochondria with full leakage of the Δψm pass from 18% to 78%. […] In TC1-Bcl-2 cells, the sensitivity to PTX treatment was restored and again the vast majority of treated mitochondria were able to open the PTPC upon PTX treatment and dissipate the Δψm (from 8% to 82%). […] Taken together, these findings indicate that PTX is able to convert Bcl-2 in a factor proficient to activate the opening of PTPC and that such activity requires the presence of Bcl-2 loop domain, since it is not longer detectable in mitochondria from TC1-Bcl-2Δ cells.

[2] = system: mitochondria freshly isolated from A2780wt cells; assay: as above; format: cell-based, human; settings: PTX 10 µM, 60 min, without treatment 18%
Description: as §2, §3, §4

[3] = system: mitochondria freshly isolated from TC1 cells; assay: as above; format: cell-based, human; settings: PTX 10 µM, 60 min; mitochondria from TC1 (undetectable Bcl-2); without treatment 16%
Description: as §2, §3, §4

[4] = system: mitochondria freshly isolated from TC1-Bcl-2 cells; assay: as above; format: cell-based, human; settings: PTX 10 µM, 60 min; mitochondria from TC1-Bcl-2; without treatment 8%
Description: as §2, §3, §4

Bcl-2 = assay: Western blot of Bcl-2 in mitochondrial extracts (mobility shift); format: cell-based, human; settings: A2780wt treated 24h with PTX 1 µM
Description: as §1
It has already been shown that Bcl-2 is phosphorylated following exposure to PTX and that phosphorylation occurs in the disordered loop of Bcl-2 (Haldar et al., 1996; Fang et al., 1998). In order to investigate if Nur77, like PTX, is able to induce Bcl-2 mobility shifts, A2780 and TC1 cell lines overexpressing Nur77 (thereafter referred to as A2780Nur77 and TC1Nur77) were established and Bcl-2 status was analysed. […]

T1 sequence (P10415 whole entry, one chain of several): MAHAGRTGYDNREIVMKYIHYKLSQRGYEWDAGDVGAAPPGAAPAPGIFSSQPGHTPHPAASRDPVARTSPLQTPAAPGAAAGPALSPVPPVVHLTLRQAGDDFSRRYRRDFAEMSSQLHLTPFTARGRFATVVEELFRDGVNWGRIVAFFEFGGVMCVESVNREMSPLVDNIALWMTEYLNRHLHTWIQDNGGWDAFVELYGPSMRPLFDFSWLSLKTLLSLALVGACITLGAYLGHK

## CC(=O)O[C@H]1C(=O)[C@@]2(C)[C@H]([C@H](OC(=O)c3ccccc3)[C@]3(O)C[C@H](OC(=O)[C@H](O)[C@@H](NC(=O)c4ccccc4)c4ccccc4)C(C)=C1C3(C)C)[C@]1(OC(C)=O)CO[C@@H]1C[C@@H]2O [PTX, paclitaxel]
Bcl2/Nur77 complex
  displacement of Nur77 from Bcl-2: able to displace Nur77 from Bcl-2
[1]
  mitochondria with changed Δψm status: 20%
[2]
  percentage of mitochondria with full leakage of the Δψm: 78%
[3]
  number of mitochondria with the leakage of Δψm: 26%
[4]
  mitochondria that open the PTPC and dissipate the Δψm: 82%
Bcl-2
  slow mobility band of Bcl-2: slow mobility band was detectable
